Laboratory results: the NIST ThermoML archive (doi:10.1016/j.jct.2009.11.011)
Numbers after ± are expanded uncertainties.

Experiments:
[1] = molar heat capacity at saturation pressure; conditions: Liquid
[2] = Liquid; for mass density: Vibrating tube method; for vapor or sublimation pressure: Ebulliometric method (Recirculating still)

c1ccc2c(c1)cnc1ccccc12 [phenanthridine]
molar heat capacity ([1]; 400 K): 314.5 ± 3.2 J/K/mol | molar heat capacity ([1]; 410 K): 319.1 ± 3.2 J/K/mol | molar heat capacity ([1]; 420 K): 323.8 ± 3.2 J/K/mol | molar heat capacity ([1]; 430 K): 328.3 ± 3.2 J/K/mol | molar heat capacity ([1]; 440 K): 332.9 ± 3.3 J/K/mol | molar heat capacity ([1]; 450 K): 337.4 ± 3.4 J/K/mol | molar heat capacity ([1]; 460 K): 341.8 ± 3.4 J/K/mol | molar heat capacity ([1]; 470 K): 346.2 ± 3.5 J/K/mol | molar heat capacity ([1]; 480 K): 350.6 ± 3.5 J/K/mol | molar heat capacity ([1]; 490 K): 354.9 ± 3.6 J/K/mol | molar heat capacity ([1]; 500 K): 359.2 ± 3.6 J/K/mol | molar heat capacity ([1]; 510 K): 363.4 ± 3.7 J/K/mol | molar heat capacity ([1]; 520 K): 367.6 ± 3.7 J/K/mol | molar heat capacity ([1]; 530 K): 371.7 ± 3.7 J/K/mol | molar heat capacity ([1]; 540 K): 375.7 ± 3.7 J/K/mol | molar heat capacity ([1]; 550 K): 379.7 ± 3.8 J/K/mol | molar heat capacity ([1]; 560 K): 383.7 ± 3.8 J/K/mol | molar heat capacity ([1]; 570 K): 387.6 ± 3.9 J/K/mol | molar heat capacity ([1]; 580 K): 391.4 ± 3.9 J/K/mol | molar heat capacity ([1]; 590 K): 395.2 ± 4 J/K/mol | molar heat capacity ([1]; 600 K): 398.8 ± 4 J/K/mol | mass density ([2]; 423.11 K): 1081.8 ± 1.1 kg/m3 | mass density ([2]; 448.11 K): 1062.7 ± 1.1 kg/m3 | mass density ([2]; 473.11 K): 1043.7 ± 1 kg/m3 | vapor or sublimation pressure ([2]; 473.89 K): 2 ± 0.01 kPa | vapor or sublimation pressure ([2]; 481.92 K): 2.666 ± 0.011 kPa | vapor or sublimation pressure ([2]; 493.84 K): 4 ± 0.011 kPa | mass density ([2]; 498.11 K): 1023.7 ± 1 kg/m3 | vapor or sublimation pressure ([2]; 502.72 K): 5.333 ± 0.011 kPa | vapor or sublimation pressure ([2]; 515.93 K): 7.999 ± 0.012 kPa | mass density ([2]; 523.11 K): 1003.9 ± 1 kg/m3 | vapor or sublimation pressure ([2]; 525.85 K): 10.67 ± 0.013 kPa | vapor or sublimation pressure ([2]; 533.86 K): 13.33 ± 0.014 kPa | vapor or sublimation pressure ([2]; 542.18 K): 16.66 ± 0.015 kPa | mass density ([2]; 548.11 K): 983.7 ± 1 kg/m3 | vapor or sublimation pressure ([2]; 549.09 K): 19.93 ± 0.016 kPa | vapor or sublimation pressure ([2]; 558.18 K): 25.02 ± 0.018 kPa | vapor or sublimation pressure ([2]; 567.34 K): 31.18 ± 0.02 kPa | vapor or sublimation pressure ([2]; 576.54 K): 38.56 ± 0.022 kPa | vapor or sublimation pressure ([2]; 585.79 K): 47.38 ± 0.025 kPa | vapor or sublimation pressure ([2]; 595.1 K): 57.82 ± 0.029 kPa | vapor or sublimation pressure ([2]; 604.47 K): 70.12 ± 0.033 kPa | vapor or sublimation pressure ([2]; 613.89 K): 84.53 ± 0.038 kPa | vapor or sublimation pressure ([2]; 623.35 K): 101.33 ± 0.041 kPa

c1ccc2c(c1)ccc1cccnc12 [benzo[h]quinoline]
molar heat capacity ([1]; 400 K): 307.8 ± 3.1 J/K/mol | molar heat capacity ([1]; 410 K): 312.9 ± 3.2 J/K/mol | molar heat capacity ([1]; 420 K): 317.9 ± 3.2 J/K/mol | molar heat capacity ([1]; 430 K): 323.1 ± 3.2 J/K/mol | molar heat capacity ([1]; 440 K): 328.2 ± 3.2 J/K/mol | molar heat capacity ([1]; 450 K): 333.3 ± 3.3 J/K/mol | molar heat capacity ([1]; 460 K): 338.4 ± 3.4 J/K/mol | molar heat capacity ([1]; 470 K): 343.5 ± 3.4 J/K/mol | molar heat capacity ([1]; 480 K): 348.5 ± 3.5 J/K/mol | molar heat capacity ([1]; 490 K): 353.5 ± 3.6 J/K/mol | molar heat capacity ([1]; 500 K): 358.4 ± 3.6 J/K/mol | molar heat capacity ([1]; 510 K): 363.3 ± 3.7 J/K/mol | molar heat capacity ([1]; 520 K): 368.1 ± 3.7 J/K/mol | molar heat capacity ([1]; 530 K): 372.7 ± 3.7 J/K/mol | molar heat capacity ([1]; 540 K): 377.2 ± 3.7 J/K/mol | molar heat capacity ([1]; 550 K): 381.6 ± 3.8 J/K/mol | molar heat capacity ([1]; 560 K): 385.8 ± 3.8 J/K/mol | molar heat capacity ([1]; 570 K): 389.7 ± 3.9 J/K/mol | molar heat capacity ([1]; 580 K): 393.4 ± 3.9 J/K/mol | molar heat capacity ([1]; 590 K): 396.9 ± 4 J/K/mol | molar heat capacity ([1]; 600 K): 400 ± 4 J/K/mol | mass density ([2]; 348.13 K): 1121.1 ± 0.11 kg/m3 | mass density ([2]; 373.12 K): 1104.9 ± 0.11 kg/m3 | mass density ([2]; 398.12 K): 1087.2 ± 0.1 kg/m3 | mass density ([2]; 423.11 K): 1068.1 ± 0.1 kg/m3 | mass density ([2]; 448.11 K): 1051.1 ± 0.1 kg/m3 | mass density ([2]; 473.11 K): 1030.8 ± 0.1 kg/m3 | mass density ([2]; 498.11 K): 1011.6 ± 0.1 kg/m3 | mass density ([2]; 523.11 K): 992.8 ± 0.12 kg/m3
